These results are taken from PMC5218480 (PLoS ONE, 2017).

The experiment concerns MV-4-11 cells. Briefly: Gene expression microarray analysis (Affymetrix PrimeView) and GSEA. The format is cell-based, human. Further details: RFU PODN (11730768_x_at) / Fold change /veh PODN (11730768_x_at) / RFU LINC00158 (11744669_a_at) / Fold change /veh LINC00158 (11744669_a_at) / RFU DUSP10 (11751237_a_at) / Fold change /veh DUSP10 (11751237_a_at) / RFU ID3 (11757404_x_at) / Fold change /veh ID3 (11757404_x_at) / RFU PLEKHG5 (11737974_s_at) / Fold change /veh PLEKHG5 (11737974_s_at) / RFU LRRC4B (11730491_at) / Fold change /veh LRRC4B (11730491_at) / RFU GIMAP4 (11747438_a_at) / Fold change /veh GIMAP4 (11747438_a_at) / RFU KRT8 (11758183_x_at) / Fold change /veh KRT8 (11758183_x_at) / RFU CNN1 (11734310_a_at) / Fold change /veh CNN1 (11734310_a_at) / RFU VPS37D (11726825_at) / Fold change /veh VPS37D (11726825_at) / RFU C10orf10 (11716522_x_at) / Fold change /veh C10orf10 (11716522_x_at) / RFU KIR2DL2 /// KIR2DL4 /// KIR2DL5A /// KIR2DL5B /// KIR2DS1 /// KIR2DS2 /// KIR2DS3 /// KIR2DS4 /// KIR3DL3 /// KIR3DL3 /// KIR3DS1 (11738374_at) / Fold change /veh KIR2DL2 /// KIR2DL4 /// KIR2DL5A /// KIR2DL5B /// KIR2DS1 /// KIR2DS2 /// KIR2DS3 /// KIR2DS4 /// KIR3DL3 /// KIR3DL3 /// KIR3DS1 (11738374_at) / RFU C1QL1 (11718748_at) / Fold change /veh C1QL1 (11718748_at) / RFU TMPRSS4 (11747572_a_at) / Fold change /veh TMPRSS4 (11747572_a_at) / RFU HAMP (11756126_x_at) / Fold change /veh HAMP (11756126_x_at) / RFU RNFT2 (11725882_a_at) / Fold change /veh RNFT2 (11725882_a_at) / RFU NR4A2 (11747474_a_at) / Fold change /veh NR4A2 (11747474_a_at) / RFU ABCC12 (11746883_a_at) / Fold change /veh ABCC12 (11746883_a_at) / RFU TMEM136 (11760407_x_at) / Fold change /veh TMEM136 (11760407_x_at) / RFU CLDN22 /// WWC2 (11732394_at) / Fold change /veh CLDN22 /// WWC2 (11732394_at) / RFU HLA-DPB1 (11760878_x_at) / Fold change /veh HLA-DPB1 (11760878_x_at) / RFU SPINT1 (11716480_a_at) / Fold change /veh SPINT1 (11716480_a_at) / RFU GAP43 (11754022_s_at) / Fold change /veh GAP43 (11754022_s_at) / RFU A4GNT (11735810_at) / Fold change /veh A4GNT (11735810_at) / RFU PRB3 (11715151_x_at) / Fold change /veh PRB3 (11715151_x_at) / RFU TUBB4B (11761932_at) / Fold change /veh TUBB4B (11761932_at) / RFU CAPN14 (11732068_a_at) / Fold change /veh CAPN14 (11732068_a_at) / RFU TMCC2 (11721928_a_at) / Fold change /veh TMCC2 (11721928_a_at) / RFU IRGQ (11745062_a_at) / Fold change /veh IRGQ (11745062_a_at) / RFU FAM174B (11720279_a_at) / Fold change /veh FAM174B (11720279_a_at) / RFU TMPRSS4 (11748680_a_at) / Fold change /veh TMPRSS4 (11748680_a_at) / RFU FAM212B (11763350_a_at) / Fold change /veh FAM212B (11763350_a_at) / RFU PLEKHG5 (11743358_a_at) / Fold change /veh PLEKHG5 (11743358_a_at) / RFU ZSCAN30 (11745921_a_at) / Fold change /veh ZSCAN30 (11745921_a_at) / RFU CMKLR1 (11741424_a_at) / Fold change /veh CMKLR1 (11741424_a_at) / RFU LOC101060620 /// MAPK8IP1 (11723275_at) / Fold change /veh LOC101060620 /// MAPK8IP1 (11723275_at) / RFU SPTSSB (11747773_x_at) / Fold change /veh SPTSSB (11747773_x_at) / RFU PRSS12 (11739890_at) / Fold change /veh PRSS12 (11739890_at) / RFU BIN1 (11741810_x_at) / Fold change /veh BIN1 (11741810_x_at) / RFU WNT11 (11732464_a_at) / Fold change /veh WNT11 (11732464_a_at) / RFU C10orf10 (11716521_a_at) / Fold change /veh C10orf10 (11716521_a_at) / RFU C5orf56 (11738089_at) / Fold change /veh C5orf56 (11738089_at) / RFU CYB561 (11721691_x_at) / Fold change /veh CYB561 (11721691_x_at) / RFU ANKRD19P (11752326_a_at) / Fold change /veh ANKRD19P (11752326_a_at) / RFU OR2T12 /// OR2T33 /// OR2T8 (11738714_s_at) / Fold change /veh OR2T12 /// OR2T33 /// OR2T8 (11738714_s_at) / RFU VCAN (11748164_a_at) / Fold change /veh VCAN (11748164_a_at) / RFU JSRP1 (11732532_at) / Fold change /veh JSRP1 (11732532_at) / RFU KRTAP10-11 (11738290_x_at) / Fold change /veh KRTAP10-11 (11738290_x_at) / RFU MYO3A (11730013_a_at) / Fold change /veh MYO3A (11730013_a_at) / RFU EBF3 (11725865_a_at) / Fold change /veh EBF3 (11725865_a_at) / RFU CAMK2N1 (11719241_x_at) / Fold change /veh CAMK2N1 (11719241_x_at) / RFU C5orf56 (11738088_a_at) / Fold change /veh C5orf56 (11738088_a_at) / RFU OLFML3 (11715873_a_at) / Fold change /veh OLFML3 (11715873_a_at) / RFU LOC100653217 /// NTM (11731650_a_at) / Fold change /veh LOC100653217 /// NTM (11731650_a_at) / RFU MAPK11 (11762145_a_at) / Fold change /veh MAPK11 (11762145_a_at) / RFU FIZ1 (11724087_x_at) / Fold change /veh FIZ1 (11724087_x_at) / RFU OASL (11726364_x_at) / Fold change /veh OASL (11726364_x_at) / RFU SOX15 (11748057_x_at) / Fold change /veh SOX15 (11748057_x_at) / RFU CD79A (11719716_a_at) / Fold change /veh CD79A (11719716_a_at) / RFU HIST1H1D (11736915_at) / Fold change /veh HIST1H1D (11736915_at) / RFU CASKIN2 (11723855_a_at) / Fold change /veh CASKIN2 (11723855_a_at) / RFU LOC730098 (11760151_x_at) / Fold change /veh LOC730098 (11760151_x_at) / RFU OR4N2 (11742367_at) / Fold change /veh OR4N2 (11742367_at) / RFU PRRT2 (11749266_a_at) / Fold change /veh PRRT2 (11749266_a_at) / RFU SNX32 (11753110_a_at) / Fold change /veh SNX32 (11753110_a_at) / RFU CDHR5 (11726645_a_at) / Fold change /veh CDHR5 (11726645_a_at) / RFU RCAN1 (11760418_a_at) / Fold change /veh RCAN1 (11760418_a_at) / RFU FAM167A (11723789_a_at) / Fold change /veh FAM167A (11723789_a_at) / RFU FAM26E (11764081_at) / Fold change /veh FAM26E (11764081_at) / RFU ISYNA1 (11749810_s_at) / Fold change /veh ISYNA1 (11749810_s_at) / RFU ACY1 (11761880_at) / Fold change /veh ACY1 (11761880_at) / RFU 11764098_at / Fold change /veh 11764098_at / RFU SAMD14 (11745864_x_at) / Fold change /veh SAMD14 (11745864_x_at) / RFU NPB (11741838_a_at) / Fold change /veh NPB (11741838_a_at) / RFU TMPRSS6 (11731388_a_at) / Fold change /veh TMPRSS6 (11731388_a_at) / RFU KRTAP10-2 (11738614_at) / Fold change /veh KRTAP10-2 (11738614_at) / RFU ARHGAP8 /// PRR5-ARHGAP8 (11727945_x_at) / Fold change /veh ARHGAP8 /// PRR5-ARHGAP8 (11727945_x_at) / RFU KRTAP5-7 /// NADSYN1 (11734609_at) / Fold change /veh KRTAP5-7 /// NADSYN1 (11734609_at) / RFU RASL12 (11751679_a_at) / Fold change /veh RASL12 (11751679_a_at) / RFU CDKN2B (11736163_a_at) / Fold change /veh CDKN2B (11736163_a_at) / RFU PRF1 (11729649_at) / Fold change /veh PRF1 (11729649_at) / RFU, ZNF638 /// ZNF638-IT1 / Fold change vs veh, ZNF638 /// ZNF638-IT1 / RFU, PANK3 / Fold change vs veh, PANK3 / RFU, SH3YL1 / Fold change vs veh, SH3YL1 / RFU, ZEB2 / Fold change vs veh, ZEB2 / RFU, NRIP1 / Fold change vs veh, NRIP1 / RFU, PTTG1IP / Fold change vs veh, PTTG1IP / RFU, CAPN2 / Fold change vs veh, CAPN2 / RFU, MED14 / Fold change vs veh, MED14 / RFU, SNORA58 / Fold change vs veh, SNORA58 / RFU, C1orf63 / Fold change vs veh, C1orf63 / RFU, LRRFIP1 / Fold change vs veh, LRRFIP1 / RFU, NDUFAF7 / Fold change vs veh, NDUFAF7 / RFU, SLC12A2 / Fold change vs veh, SLC12A2 / RFU, IBTK / Fold change vs veh, IBTK / RFU, ESF1 / Fold change vs veh, ESF1 / Fold change vs veh, TMEM50B / RFU, TAOK1 / Fold change vs veh, TAOK1 / RFU, ACBD3 / Fold change vs veh, ACBD3 / RFU, TMA16 / Fold change vs veh, TMA16 / RFU, RWDD3 / Fold change vs veh, RWDD3 / RFU, BCAT1 / Fold change vs veh, BCAT1 / RFU, EDEM3 / Fold change vs veh, EDEM3 / RFU, TMEM33 / Fold change vs veh, TMEM33 / RFU, WDR75 / Fold change vs veh, WDR75 / RFU, AHCTF1 / Fold change vs veh, AHCTF1 / RFU, TFRC / Fold change vs veh, TFRC / RFU, ZDHHC17 / Fold change vs veh, ZDHHC17 / RFU, NOM1 / Fold change vs veh, NOM1 / RFU, ARL8B / Fold change vs veh, ARL8B / RFU, ZBTB11 / Fold change vs veh, ZBTB11 / RFU, TAMM41 / Fold change vs veh, TAMM41 / RFU, KIAA1704 /// LOC100996395 / Fold change vs veh, KIAA1704 /// LOC100996395 / RFU, ING1 / Fold change vs veh, ING1 / RFU, TRMT61B / Fold change vs veh, TRMT61B / RFU, FUBP3 / Fold change vs veh, FUBP3 / RFU, TP53 / Fold change vs veh, TP53 / RFU, TNKS2 / Fold change vs veh, TNKS2 / RFU, ZFP14 / Fold change vs veh, ZFP14 / RFU, ACTR2 / Fold change vs veh, ACTR2 / RFU, PPP3R1 / Fold change vs veh, PPP3R1 / RFU, PIK3R1 / Fold change vs veh, PIK3R1 / RFU, HNRNPA1 / Fold change vs veh, HNRNPA1 / RFU, RNF170 / Fold change vs veh, RNF170 / RFU, ZNF28 / Fold change vs veh, ZNF28 / RFU, RNGTT / Fold change vs veh, RNGTT / RFU, OGT / Fold change vs veh, OGT / RFU, BRD1 / Fold change vs veh, BRD1 / RFU, MARS / Fold change vs veh, MARS / RFU, ZNF655 / Fold change vs veh, ZNF655 / RFU, FAHD1 / Fold change vs veh, FAHD1 / RFU, BDP1 / Fold change vs veh, BDP1 / RFU, LRRCC1 / Fold change vs veh, LRRCC1 / RFU, ARID1A / Fold change vs veh, ARID1A / RFU, ZNF146 / Fold change vs veh, ZNF146 / RFU, ZNF330 / Fold change vs veh, ZNF330 / RFU, GPN3 / Fold change vs veh, GPN3 / RFU, C9orf123 / Fold change vs veh, C9orf123 / RFU, N4BP2L2 / Fold change vs veh, N4BP2L2 / RFU, ARFIP1 / Fold change vs veh, ARFIP1 / RFU, FAM179B / Fold change vs veh, FAM179B / RFU, BCL10 / Fold change vs veh, BCL10 / RFU, UHRF1BP1L / Fold change vs veh, UHRF1BP1L / RFU, BET1 / Fold change vs veh, BET1 / RFU, CNOT2 / Fold change vs veh, CNOT2 / RFU, ZNF268 / Fold change vs veh, ZNF268 / Fold change vs veh, ZNF507 / RFU, DGCR2 / Fold change vs veh, DGCR2 / RFU, WDSUB1 / Fold change vs veh, WDSUB1 / Fold change vs veh, HSP90B1 /// MIR3652 / RFU, ADSS / Fold change vs veh, ADSS / RFU, GK / Fold change vs veh, GK / RFU, ZNF148 / Fold change vs veh, ZNF148 / RFU, TAF9 / Fold change vs veh, TAF9 / RFU, SLC1A5 / Fold change vs veh, SLC1A5 / RFU, SLMO2 / Fold change vs veh, SLMO2 / RFU, ABCC4 / Fold change vs veh, ABCC4 / RFU, LOC101060439 /// RAP1B / Fold change vs veh, LOC101060439 /// RAP1B / RFU, RFX7 / Fold change vs veh, RFX7 / RFU, GTPBP10 / Fold change vs veh, GTPBP10 / RFU, CNEP1R1 / Fold change vs veh, CNEP1R1 / RFU, BIVM-ERCC5 /// ERCC5 / Fold change vs veh, BIVM-ERCC5 /// ERCC5 / RFU, ILF3 / Fold change vs veh, ILF3 / RFU 11762660_at / Fold change /veh 11762660_at / RFU VCAN (11757783_s_at) / Fold change /veh VCAN (11757783_s_at) / RFU DDX43 (11728927_at) / Fold change /veh DDX43 (11728927_at) / RFU KRT8 (11758188_x_at) / Fold change /veh KRT8 (11758188_x_at) / RFU NKD1 (11759106_at) / Fold change /veh NKD1 (11759106_at) / RFU SRD5A1 (11742802_a_at) / Fold change /veh SRD5A1 (11742802_a_at) / RFU TPSAB1 /// TPSB2 (11721975_s_at) / Fold change /veh TPSAB1 /// TPSB2 (11721975_s_at) / RFU GSTM3 (11746129_a_at) / Fold change /veh GSTM3 (11746129_a_at) / RFU IL23R (11737362_x_at) / Fold change /veh IL23R (11737362_x_at) / RFU TMEM51 (11727254_a_at) / Fold change /veh TMEM51 (11727254_a_at) / RFU PIWIL2 (11732686_x_at) / Fold change /veh PIWIL2 (11732686_x_at) / RFU ORM1 (11744905_x_at) / Fold change /veh ORM1 (11744905_x_at) / RFU CCDC152 (11743942_at) / Fold change /veh CCDC152 (11743942_at) / RFU ECM1 (11717891_a_at) / Fold change /veh ECM1 (11717891_a_at) / RFU IL23R (11748794_a_at) / Fold change /veh IL23R (11748794_a_at) / RFU TNFAIP8L3 (11732012_x_at) / Fold change /veh TNFAIP8L3 (11732012_x_at) / RFU MBOAT4 (11741988_at) / Fold change /veh MBOAT4 (11741988_at) / RFU 11764193_at / Fold change /veh 11764193_at / RFU TMEM53 (11763286_at) / Fold change /veh TMEM53 (11763286_at) / RFU MAGEB2 (11727129_at) / Fold change /veh MAGEB2 (11727129_at) / RFU TMEM200A (11744735_a_at) / Fold change /veh TMEM200A (11744735_a_at) / RFU CCDC152 (11751479_a_at) / Fold change /veh CCDC152 (11751479_a_at) / RFU FAM211A (11726209_a_at) / Fold change /veh FAM211A (11726209_a_at) / RFU RGS16 (11746705_a_at) / Fold change /veh RGS16 (11746705_a_at) / RFU VCAN (11755009_s_at) / Fold change /veh VCAN (11755009_s_at) / RFU RHOB (11743442_s_at) / Fold change /veh RHOB (11743442_s_at) / RFU RGS16 (11720943_a_at) / Fold change /veh RGS16 (11720943_a_at) / RFU RGS16 (11720944_at) / Fold change /veh RGS16 (11720944_at) / RFU, VPS4B / Fold change vs veh, VPS4B / RFU, CREB1 / Fold change vs veh, CREB1 / RFU, DNAJC13 / Fold change vs veh, DNAJC13 / RFU, GNAQ / Fold change vs veh, GNAQ / RFU, CDK5R1 / Fold change vs veh, CDK5R1 / RFU, ZRANB3 / Fold change vs veh, ZRANB3 / RFU, CUL4A / Fold change vs veh, CUL4A / RFU, CCNY / Fold change vs veh, CCNY / RFU, UFL1 / Fold change vs veh, UFL1 / RFU, COG3 / Fold change vs veh, COG3 / RFU, DIAPH2 / Fold change vs veh, DIAPH2 / RFU, SKA2 / Fold change vs veh, SKA2 / RFU, AFF3 / Fold change vs veh, AFF3 / RFU, LMF1 / Fold change vs veh, LMF1 / RFU, IPO11 / Fold change vs veh, IPO11 / RFU, DFFB / Fold change vs veh, DFFB / RFU, FOXP1 / Fold change vs veh, FOXP1 / RFU, CARD8 / Fold change vs veh, CARD8 / RFU, STRN3 / Fold change vs veh, STRN3 / RFU, ADK / Fold change vs veh, ADK / RFU, RASSF2 / Fold change vs veh, RASSF2 / RFU, WIPF1 / Fold change vs veh, WIPF1 / RFU, LARP1B / Fold change vs veh, LARP1B / RFU, RASA1 / Fold change vs veh, RASA1 / RFU, RB1 / Fold change vs veh, RB1 / RFU, PPFIA1 / Fold change vs veh, PPFIA1 / RFU, MAT2A / Fold change vs veh, MAT2A / RFU, CCT5 / Fold change vs veh, CCT5 / RFU, WDR92 / Fold change vs veh, WDR92 / RFU, CUX1 / Fold change vs veh, CUX1 / RFU, TTC7A / Fold change vs veh, TTC7A / RFU, TMEM135 / Fold change vs veh, TMEM135 / RFU, DEPTOR / Fold change vs veh, DEPTOR / RFU, CPM / Fold change vs veh, CPM / RFU, DNAJB6 / Fold change vs veh, DNAJB6 / RFU, CACNA2D3 / Fold change vs veh, CACNA2D3 / RFU, DTX4 / Fold change vs veh, DTX4 / RFU, TFCP2 / Fold change vs veh, TFCP2 / RFU, GMCL1 /// GMCL1P1 / Fold change vs veh, GMCL1 /// GMCL1P1 / RFU, AEBP2 / Fold change vs veh, AEBP2 / RFU, SNHG1 /// SNORD22 /// SNORD25 /// SNORD26 /// SNORD27 /// SNORD28 /// SNORD29 /// SNORD31 / Fold change vs veh, SNHG1 /// SNORD22 /// SNORD25 /// SNORD26 /// SNORD27 /// SNORD28 /// SNORD29 /// SNORD31 / Fold change (Aza/veh), C12orf56 (ProbeSet 11735607_a_at) / Fold change (ACY-1035/veh), C12orf56 (ProbeSet 11735607_a_at) / Fold change (Aza/veh), FGFR1OP (ProbeSet 11751329_s_at) / Fold change (ACY-1035/veh), FGFR1OP (ProbeSet 11751329_s_at) / Fold change (Aza/veh), VPS36 (ProbeSet 11739960_a_at) / Fold change (ACY-1035/veh), VPS36 (ProbeSet 11739960_a_at) / RFU SYPL1 (11715823_x_at) / Fold change /veh SYPL1 (11715823_x_at) / RFU IGFBP7 (11715501_s_at) / Fold change /veh IGFBP7 (11715501_s_at) / RFU REEP3 (11722064_at) / Fold change /veh REEP3 (11722064_at) / RFU IGLL1 (11728026_x_at) / Fold change /veh IGLL1 (11728026_x_at): dose or concentration left out as unconfirmed. Particulars: ProbeSet 11740011_at; LIST B.

Consider `Nc1ncn([C@@H]2O[C@H](CO)[C@@H](O)[C@H]2O)c(=O)n1` [azacitidine], for which the “Fold change vs veh, ZFP14” value was 0.92.
